What was measured:
Conditions in all cases: 48 h
[1] = system: SEM cells; experiment: cell viability relative to DMSO control; higher = less cytotoxic
In short: (§1)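 Viability is expressed as a percentage of DMSO wells within each plate, and cell-free wells serve as background. Seeding densities in the 1536-well plates (5 μl) were 500 cells/well for NOMO1 or SEM leukemia cells and 1000 cells/well for P12-Ichikawa. Each line was adapted for at least four passages in each medium. Library compounds in DMSO were pin-dosed at 47 μM to 0.79 nM (11 points, threefold), and CellTiter-Glo One luminescence was read after 48 h at 37°C.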

[2] = system: NOMO1; experiment: as above
In short: as §1

[3] = system: P12-Ichikawa; experiment: as above
In short: as §1

[4] = system: SEM cells; experiment: AUC of viability dose-response curve (% viability x log10 dose units); higher = less sensitive
In short: (§2)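 Leukemia cells adapted to each medium (500 or 1000 cells/well, 1536-well plates) were exposed to library compounds in DMSO for 48 h at 37°C at 11 threefold doses, 47 μM to 0.79 nM. Luminescence by CellTiter-Glo One was normalised per plate to DMSO and cell-free wells, then fitted with a four-parameter log-logistic curve on log10 dose. Curves above full viability were scaled and quality-control failures removed before area under the curve was integrated by trapezoidal rule.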

[5] = system: NOMO1; experiment: as above
In short: as §2

[6] = system: P12-Ichikawa; experiment: as above
In short: as §2

O=C(O[C@H]1C[C@H]2CC[C@@H](C1)[N+]21CCCC1)C(O)(c1ccccc1)c1ccccc1.[Cl-]
cell viability [%]
Conditions	[1]	[2]	[3]
HPLM + 10% dialyzed FBS, 0.000781 µM	97.4	95.5	104
HPLM + 10% dialyzed FBS, 0.00234 µM	96.2	116	104
HPLM + 10% dialyzed FBS, 0.00702 µM	104	121	112
HPLM + 10% dialyzed FBS, 0.0211 µM	103	107	106
HPLM + 10% dialyzed FBS, 0.0632 µM	115	124	117
HPLM + 10% dialyzed FBS, 0.19 µM	113	116	105
HPLM + 10% dialyzed FBS, 0.569 µM	115	116	110
HPLM + 10% dialyzed FBS, 1.71 µM	115	116	116
HPLM + 10% dialyzed FBS, 5.12 µM	118	116	107
HPLM + 10% dialyzed FBS, 15.4 µM	113	110	116
HPLM + 10% dialyzed FBS, 46.1 µM	98.2	106	110
RPMI 5 mM glucose + 10% FBS, 0.000781 µM	90	89.4	107
RPMI 5 mM glucose + 10% FBS, 0.00234 µM	98.1	95.7	104
RPMI 5 mM glucose + 10% FBS, 0.00702 µM	88.4	99.6	113
RPMI 5 mM glucose + 10% FBS, 0.0211 µM	98.9	89.9	116
RPMI 5 mM glucose + 10% FBS, 0.0632 µM	103	92.3	120
RPMI 5 mM glucose + 10% FBS, 0.19 µM	95.8	98.3	127
RPMI 5 mM glucose + 10% FBS, 0.569 µM	97.9	96.8	127
RPMI 5 mM glucose + 10% FBS, 1.71 µM	127	105	106
RPMI 5 mM glucose + 10% FBS, 5.12 µM	109	100	113
RPMI 5 mM glucose + 10% FBS, 15.4 µM	106	105	115
RPMI 5 mM glucose + 10% FBS, 46.1 µM	99.9	92.1	115
RPMI 5 mM glucose + 10% dialyzed FBS, 0.000781 µM	81	97.6	99.5
RPMI 5 mM glucose + 10% dialyzed FBS, 0.00234 µM	101	98.8	99.9
RPMI 5 mM glucose + 10% dialyzed FBS, 0.00702 µM	98.5	111	105
RPMI 5 mM glucose + 10% dialyzed FBS, 0.0211 µM	108	109	106
RPMI 5 mM glucose + 10% dialyzed FBS, 0.0632 µM	132	98.1	117
RPMI 5 mM glucose + 10% dialyzed FBS, 0.19 µM	122	102	110
RPMI 5 mM glucose + 10% dialyzed FBS, 0.569 µM	115	94.8	104
RPMI 5 mM glucose + 10% dialyzed FBS, 1.71 µM	117	95	113
RPMI 5 mM glucose + 10% dialyzed FBS, 5.12 µM	119	111	107
RPMI 5 mM glucose + 10% dialyzed FBS, 15.4 µM	117	106	103
RPMI 5 mM glucose + 10% dialyzed FBS, 46.1 µM	122	108	103

AUC of viability dose-response curve
Conditions	[4]	[5]	[6]
HPLM + 10% dialyzed FBS	460	472	461
RPMI 5 mM glucose + 10% FBS	437	462	464
RPMI 5 mM glucose + 10% dialyzed FBS	449	467	470

Cc1[nH]c2ccccc2c1CCNCc1ccc(/C=C/C(=O)NO)cc1
cell viability [%]
Conditions	[1]	[2]	[3]
HPLM + 10% dialyzed FBS, 0.000781 µM	99.1	102	109
HPLM + 10% dialyzed FBS, 0.00234 µM	114	108	106
HPLM + 10% dialyzed FBS, 0.00702 µM	112	126	111
HPLM + 10% dialyzed FBS, 0.0211 µM	114	99.9	120
HPLM + 10% dialyzed FBS, 0.0632 µM	116	137	121
HPLM + 10% dialyzed FBS, 0.19 µM	75.8	103	103
HPLM + 10% dialyzed FBS, 0.569 µM	12.3	61.8	63.1
HPLM + 10% dialyzed FBS, 1.71 µM	7.29	14.2	7.05
HPLM + 10% dialyzed FBS, 5.12 µM	8.44	9	6.95
HPLM + 10% dialyzed FBS, 15.4 µM	8.29	8.41	7.08
HPLM + 10% dialyzed FBS, 46.1 µM	8.77	8.11	7.23
RPMI 5 mM glucose + 10% FBS, 0.000781 µM	85.6	111	106
RPMI 5 mM glucose + 10% FBS, 0.00234 µM	88.8	118	120
RPMI 5 mM glucose + 10% FBS, 0.00702 µM	101	108	108
RPMI 5 mM glucose + 10% FBS, 0.0211 µM	94.3	106	107
RPMI 5 mM glucose + 10% FBS, 0.0632 µM	92.5	110	128
RPMI 5 mM glucose + 10% FBS, 0.19 µM	74.1	102	109
RPMI 5 mM glucose + 10% FBS, 0.569 µM	12.6	82.9	48.2
RPMI 5 mM glucose + 10% FBS, 1.71 µM	5.77	10.9	6.65
RPMI 5 mM glucose + 10% FBS, 5.12 µM	7.04	7.29	6.49
RPMI 5 mM glucose + 10% FBS, 15.4 µM	7.05	7.8	8.3
RPMI 5 mM glucose + 10% FBS, 46.1 µM	7.05	7.5	6.44
RPMI 5 mM glucose + 10% dialyzed FBS, 0.000781 µM	89.9	106	114
RPMI 5 mM glucose + 10% dialyzed FBS, 0.00234 µM	106	122	109
RPMI 5 mM glucose + 10% dialyzed FBS, 0.00702 µM	108	116	117
RPMI 5 mM glucose + 10% dialyzed FBS, 0.0211 µM	115	99.5	111
RPMI 5 mM glucose + 10% dialyzed FBS, 0.0632 µM	112	122	122
RPMI 5 mM glucose + 10% dialyzed FBS, 0.19 µM	81.6	110	113
RPMI 5 mM glucose + 10% dialyzed FBS, 0.569 µM	19.5	84.4	74.4
RPMI 5 mM glucose + 10% dialyzed FBS, 1.71 µM	7.59	13	6.85
RPMI 5 mM glucose + 10% dialyzed FBS, 5.12 µM	8.77	8.52	6.73
RPMI 5 mM glucose + 10% dialyzed FBS, 15.4 µM	8.45	9.32	6.95
RPMI 5 mM glucose + 10% dialyzed FBS, 46.1 µM	9.84	7.81	7.21

AUC of viability dose-response curve
Conditions	[4]	[5]	[6]
HPLM + 10% dialyzed FBS	265	300	298
RPMI 5 mM glucose + 10% FBS	251	311	292
RPMI 5 mM glucose + 10% dialyzed FBS	273	312	304
